Legend:
[1] = mouse, in vivo
U87 flank xenografts = test system: U87 flank xenografts; parameters: species or system mice; conditions: mouse, in vivo
CD-1 mice = experiment: Activity level of CD-1 mice after injection of free peptides; conditions: high dose (200 nmol), IV, starting 3 minutes post injection
[2] = cited from earlier work

## CC1(C)C(/C=C/C=C/C=C/C=C2\N(CCCCS(=O)(=O)[O-])c3ccc4ccccc4c3C2(C)C)=[N+](CCCCS(=O)(=O)[O-])c2ccc3ccccc3c21.[Na+] [ICG free dye, Cardiogreen (ICG)]
[1]
  Detection in fecal matter: detectable in the fecal matter
  Detection in liver, kidney, spleen, or brain: not detectable
U87 flank xenografts
  Targeting / detection in tumor tissue: not detected

## Chlorotoxin [KNT-01]
CD-1 mice
  Activity level after free peptide injection: decrease in activity level, somnolence, and prostration

## CN1C(=Cc2cc[n+](CCC[N+](C)(C)CCC[N+](C)(C)CCC[n+]3ccc(C=C4Sc5ccccc5N4C)cc3)cc2)Sc2ccccc21.[I-].[I-].[I-].[I-] [BOBO-1]
[2]; peak absorbance wavelength of exemplary fluorescent reporter molecule
  Peak Abs.: 570 nanometers
[2]; peak emission wavelength of exemplary fluorescent reporter molecule
  Peak Em.: 602 nanometers
